“Also recorded” adds a separate entry of the source. Where two headings read alike, the source gives them in different places.
Tests used:
Lp1 = type: cell-based, Legionella pneumophila; conditions: ~9×10^6 CFU/mL
[1] = Dissolution of CX powder in 140° F. municipal water
[2] = system: gram-positive and gram-negative bacteria; conditions: cited from earlier work
[3] = ambient temperature; third-party reports; cited from earlier work
[4] = 50 mg CX powder in 1 liter 140° F. (60° C.) municipal water

With `[H]/N=C(\N/C(=N/[H])NCCCCCCNC(=N)NC(=N)Nc1ccc(Cl)cc1)Nc1ccc(Cl)cc1` [CX, N,N″″1,6-Hexanediylbis[N-(4-chlorophenyl) (imidodicarbonimidic diamide)]] the cell count reduction (Lp1; 4.5 g solid CX in 800 mL, first 30 seconds) was ~0.3 log, the cell count reduction (Lp1; 12 g solid CX in 800 mL, 2-minute reaction period) was ~4.8 log and the “saturation level of CX approached” value [1, 4] was ~1 mg/L. The “time to approach saturation level” value [1, 4] was ≤ 10 s, the “portion of the powder dissolved” value ([1]; 50 mg in 1 liter 140° F. water, up to 20 minutes of exposure) was “under 2 weight percent” and the “chloroaniline (CA) isomers detectable in the water” value ([1]; CX in 140° F. water) was “no isomer of CA was detectable; also recorded: No chloroani line impurities were detectable”. The “time of uptake into bacterial cells” value ([2]; aqueously dissolved form) was ≤ 20 s, the persistence of activity ([2]; bound to proteins on skin, mucosa, mouth tissue and teeth) was ≥ 48 h and the “time to kill virtually all gram-positive and gram-negative bacteria” value ([2]; in vitro) was ≤ 30 s. The solubility in water [3] was “ca. 80 mg/100 mL”.

Source: US11517019B2, “Microbicidal system” (priority 2020, dated 2022)
